Data reported in patent US20130102593A1, “PYRROLIDINE COMPOUNDS WHICH INHIBIT BETA-SECRETASE ACTIVITY AND METHODS OF USE THEREOF” (priority 2008, published 2013).

test system: Aβ production; assay: Cellular Aβ IC50 determination (memapsin 2 activity in a cellular assay of Aβ production); assay type: cell-based, Chinese hamster; conditions: Cricetulus griseus; Chinese hamster ovary cells over-expressing human APP695 with London and Swedish mutations, 24 h, Aβ40 sandwich ELISA; read-out: M2 IC50
Procedure: The potency of compounds against memapsin 2 activity was determined in a cellular assay of Aβ production. […] Chinese hamster ovary cells that over-express human APP695 with the London and Swedish mutations were seeded in multi-well plates at 10% confluency. Compounds are dissolved in DMSO to concentrations near 1 mM, and diluted into culture media to a final concentration near 4 μM (final 0.4% DMSO). Compounds were diluted serially and applied to cells in multi-well plates 48 h after seeding. Incubation was continued in 5% CO2 at 37° C. for 24 h. Aliquots were removed and assayed for […] content using a sandwich ELISA (BioSource International). Amount of Aβ40 over the range of concentration of compounds, relative to control incubations, were fit to a 4-parameter IC50 model.

Compound	IC50
Cc1csc(CN(C)C(=O)c2cccc(C(=O)N[C@@H](Cc3ccccc3)[C@H](O)[C@H]3CCCN3C(=O)OC(C)(C)C)c2)n1 [1-1, (R)-tert-butyl 2-((1S,2S)-1-hydroxy-2-(3-(methyl((4-methylthiazol-2-yl)methyl)carbamoyl)benzamido)-3-phenylpropyl)pyrrolidine-1-carboxylate]	> 1 µM
Cc1csc(CN(C)C(=O)c2cccc(C(=O)N[C@@H](Cc3ccccc3)[C@H](O)[C@H]3CCCN3)c2)n1 [1-2, N1-((1R,2S)-1-hydroxy-3-phenyl-1-((R)-pyrrolidin-2-yl)propan-2-yl)-N3-methyl-N3-((4-methylthiazol-2-yl)methyl)isophthalamide]	> 1 µM
Cc1coc([C@H]2CCCN2C(=O)c2cccc(C(=O)N[C@@H](Cc3ccccc3)[C@H](O)[C@H]3CCCN3)c2)n1 [1-4, N-((1R,2S)-1-hydroxy-3-phenyl-1-((R)-pyrrolidin-2-yl)propan-2-yl)-3-((R)-2-(4-methyloxazol-2-yl)pyrrolidine-1-carbonyl)benzamide]	> 1 µM
C[C@@H](NC(=O)c1cc(C(=O)N[C@@H](Cc2ccccc2)[C@H](O)[C@H]2CCCN2C(=O)OC(C)(C)C)cc(N(C)S(C)(=O)=O)c1)c1ccccc1 [1-5, (R)-tert-butyl 2-((1S,2S)-1-hydroxy-2-(3-(N-methylmethylsulfonamido)-5-((R)-1-phenylethylcarbamoyl)benzamido)-3-phenylpropyl)pyrrolidine-1-carboxylate]	> 1 µM
Cc1cc(C(=O)N[C@@H](Cc2ccccc2)[C@H](O)[C@H]2CCCN2C(=O)OC(C)(C)C)cc(C(=O)N2CCC[C@@H]2c2nc(C)co2)c1 [1-6, (R)-tert-butyl 2-((1S,2S)-1-hydroxy-2-(3-methyl-5-((R)-2-(4-methyloxazol-2-yl)pyrrolidine-1-carbonyl)benzamido)-3-phenylpropyl)pyrrolidine-1-carboxylate]	> 1 µM
Cc1csc(CN(C)C(=O)c2cc(C(=O)N[C@@H](Cc3ccccc3)[C@H](O)[C@H]3CCCN3C(=O)OC(C)(C)C)cc(-c3ncco3)c2)n1 [1-7, (R)-tert-butyl 2-((1S,2S)-1-hydroxy-2-(3-(methyl((4-methylthiazol-2-yl)methyl)carbamoyl)-5-(oxazol-2-yl)benzamido)-3-phenylpropyl)pyrrolidine-1-carboxylate]	> 1 µM
Cc1cc(C(=O)N[C@@H](Cc2ccccc2)[C@H](O)[C@H]2CCCN2)cc(C(=O)N2CCC[C@@H]2c2nc(C)co2)c1 [1-8, N-((1R,2S)-1-hydroxy-3-phenyl-1-((R)-pyrrolidin-2-yl)propan-2-yl)-3-methyl-5-((R)-2-(4-methyloxazol-2-yl)pyrrolidine-1-carbonyl)benzamide]	> 1 µM
Cc1csc(CN(C)C(=O)c2cccc(C(=O)N[C@@H](Cc3ccccc3)[C@H](O)[C@H]3C[C@@H](OCc4ccccc4)CN3)c2)n1 [1-9, N1-((1R,2S)-1-((2R,4R)-4-(benzyloxy)pyrrolidin-2-yl)-1-hydroxy-3-phenylpropan-2-yl)-N3-methyl-N3-((4-methylthiazol-2-yl)methyl)isophthalamide]	< 0.5 µM
Cc1csc(CN(C)C(=O)c2cccc(C(=O)N[C@@H](Cc3ccccc3)[C@H](O)[C@H]3C[C@@H](O)CN3)c2)n1 [1-10, N1-((1R,2S)-1-hydroxy-1-((2R,4R)-4-hydroxypyrrolidin-2-yl)-3-phenylpropan-2-yl)-N3-methyl-N3-((4-methylthiazol-2-yl)methyl)isophthalamide]	> 1 µM
C[C@@H](NC(=O)c1cc(C(=O)N[C@@H](Cc2ccccc2)[C@H](O)[C@H]2CCCN2)cc(N(C)S(C)(=O)=O)c1)c1ccccc1 [1-11, N1-((1R,2S)-1-hydroxy-3-phenyl-1-((R)-pyrrolidin-2-yl)propan-2-yl)-5-(N-methylmethylsulfonamido)-N3-((R)-1-phenylethyl)isophthalamide]	< 0.5 µM
Cc1csc(CN(C)C(=O)c2cc(C(=O)N[C@@H](Cc3ccccc3)[C@H](O)[C@H]3CCCN3)cc(-c3cnco3)c2)n1 [1-12, N1-((1R,2S)-1-hydroxy-3-phenyl-1-((R)-pyrrolidin-2-yl)propan-2-yl)-N3-methyl-N3-((4-methylthiazol-2-yl)methyl)-5-(oxazol-5-yl)isophthalamide]	> 1 µM
Cc1csc(CN(C)C(=O)c2cc(C(=O)N[C@@H](Cc3ccccc3)[C@H](O)[C@H]3CCCN3)cc(-n3cccc3)c2)n1 [1-13, N1-((1R,2S)-1-hydroxy-3-phenyl-1-((R)-pyrrolidin-2-yl)propan-2-yl)-N3-methyl-N3-((4-methylthiazol-2-yl)methyl)-5-(1H-pyrrol-1-yl)isophthalamide]	0.5 to 1 µM
Cc1csc([C@H]2CCCN2C(=O)c2cc(C(=O)N[C@@H](Cc3ccccc3)[C@H](O)[C@H]3CCCN3)cc(C(F)F)c2)n1 [1-14, 3-(difluoromethyl)-N-((1R,2S)-1-hydroxy-3-phenyl-1-((R)-pyrrolidin-2-yl)propan-2-yl)-5-((R)-2-(4-methylthiazol-2-yl)pyrrolidine-1-carbonyl)benzamide]	< 0.5 µM
Cc1csc(CN(C)C(=O)c2cc(C(=O)N[C@@H](Cc3ccccc3)[C@H](O)[C@H]3CCCN3)cc(-c3ncco3)c2)n1 [1-15, N1-((1R,2S)-1-hydroxy-3-phenyl-1-((R)-pyrrolidin-2-yl)propan-2-yl)-N3-methyl-N3-((4-methylthiazol-2-yl)methyl)-5-(oxazol-2-yl)isophthalamide]	< 0.5 µM
Cc1csc([C@H]2CCCN2C(=O)c2cc(C(=O)N[C@@H](Cc3ccccc3)[C@H](O)[C@H]3CCCN3)cc(-n3cccc3)c2)n1 [1-16, N1-((1R,2S)-1-hydroxy-3-phenyl-1-((R)-pyrrolidin-2-yl)propan-2-yl)-3-((R)-2-(4-methylthiazol-2-yl)pyrrolidine-1-carbonyl)-5-(1H-pyrrol-1-yl)benzamide]	0.5 to 1 µM
Cc1coc([C@H]2CCCN2C(=O)c2cc(C(=O)N[C@@H](Cc3ccccc3)[C@H](O)[C@H]3CCCN3)cc(-c3ncco3)c2)n1 [1-17, N-((1R,2S)-1-hydroxy-3-phenyl-1-((R)-pyrrolidin-2-yl)propan-2-yl)-3-((R)-2-(4-methyloxazol-2-yl)pyrrolidine-1-carbonyl)-5-(oxazol-2-yl)benzamide]	< 0.5 µM
Cc1csc([C@H]2CCCN2C(=O)c2cc(C(=O)N[C@@H](Cc3ccccc3)[C@H](O)[C@H]3CCCN3)cc(-c3ncco3)c2)n1 [1-19, N-((1R,2S)-1-hydroxy-3-phenyl-1-((R)-pyrrolidin-2-yl)propan-2-yl)-3-((R)-2-(4-methylthiazol-2-yl)pyrrolidine-1-carbonyl)-5-(oxazol-2-yl)benzamide]	< 0.5 µM
Cc1csc([C@H]2CCCN2C(=O)c2cc(C(=O)N[C@@H](Cc3ccccc3)[C@H](O)[C@H]3CCCN3)cc(-c3cnccn3)c2)n1 [1-20, N-((1R,2S)-1-hydroxy-3-phenyl-1-((R)-pyrrolidin-2-yl)propan-2-yl)-3-((R)-2-(4-methylthiazol-2-yl)pyrrolidine-1-carbonyl)-5-(pyrazin-2-yl)benzamide]	< 0.5 µM
Cc1coc([C@H]2CCCN2C(=O)c2cc(C(=O)N[C@@H](Cc3ccccc3)[C@H](O)[C@H]3CCCN3)cc(-c3cnccn3)c2)n1 [1-21, N-((1R,2S)-1-hydroxy-3-phenyl-1-((R)-pyrrolidin-2-yl)propan-2-yl)-3-((R)-2-(4-methyloxazol-2-yl)pyrrolidine-1-carbonyl)-5-(pyrazin-2-yl)benzamide]	< 0.5 µM
